According to patent US11999782B2, “Therapeutic agents for the treatment of diseases associated with undesired cell proliferation” (Fundació Privada Institutció Catalana de Recerca I Estudis …, priority 2009, dated 2024):

Columns and labels:
[1] = system: GICs (glioma initiating cells) / GBM neurospheres; assay: Self-renewal assay of GBM neurospheres (GICs derived from patients); assay type: cell-based, human; conditions: added with 100 pM TGFβ1; 2 μM TβRI inhibitor, anti-LIF neutralizing antibody or 0.5 pM P6; absence of EGF and FGF
Method: FIG. 1. Effect of TGFβ on the self-renewal of GIC derived from patients. (A) Representative images of PCTCs and neurospheres of GBM generated from samples of 3 different patients with GBM (GBM1, GBM2, GBM3). (B) Musashi-1 (Msi-1), Sox2, Nestin and β-actin were determined by means of RT-PCR analysis of PCTCs and neurospheres of 3 samples of human GBM. (C) 100,000 neurosphere (nsph.) or PCTC cells obtained from samples of GBM1, GBM2 and GBM3 tumors were intracranially inoculated in three Balbc nu/nu mice in each case. Magnetic resonance imaging (MRI) studies were performed on days 30-40 in each mouse. The images represent an example of mice inoculated with neurosphere or PCTC cells obtained from GBM1. The mice were weighed twice a week. The graph represents mice inoculated with cells derived from GBM1. (D and E) Neurosphere cells of the indicated GBMs were incubated in the absence of growth factors with 100 pM TGFβ1 and/or 2 μM TβRI inhibitor for 7 days and the number of newly formed neurospheres (D) and the total number of cells (E) were determined. (F) Representative images of GBM1 neurospheres treated as indicated in D and E.
FIG. 6. LIF mediates the increase of self-renewal of GIC by TGFβ. (A, B) GBM1, GBM2 and GBM3 neurosphere cells were treated with 100 pM TGFβ1, 20 ng/ml LIF and/or anti-LIF neutralizing antibody and 0.5 pM P6 in the absence of EGF and FGF and the number of newly formed neurospheres (A) or the total number of cells (B) was determined. (C) Representative images of GBM1 neurospheres treated as indicated in A and B.
The self-renewal of the neurospheres was evaluated by seeding an identical number of cells at a very low density in wells of a 96-well plate. The cells were treated, in the absence of growth factors, with the indicated compounds and the total number of new neurospheres formed after 7 days in culture was counted (Lee et al. (2008) Cancer Cell 13, 69-80; Reynolds and Weiss, (1996) Dev Biol 175, 1-13; Seaberg and van der Kooy, (2002) J Neurosci 22, 1784-1793).
It was decided to evaluate the effect of TGFβ on the capacity for self-renewal of GICs following a well described protocol based on the capacity of GICs to generate neurospheres (Reynolds and Weiss, 1996, Dev Biol. 175:1-13; Seaberg and van der Kooy, 2002, J Neurosci 22:1784-1793). The neurospheres derived from patients were disassociated into individual cells, treated with TGFβ or left untreated for 7 days in the absence of growth factors and the newly formed neurospheres and the total number of cells were counted. Following this protocol, the effect of TGFβ on the capacity for self-renewal of the GICs derived from three different patients was evaluated. […] These effects were blocked when an TGFβ I receptor inhibitor (TβRI) was added at the same time as TGFβ.
It was decided to assess whether LIF and JAK-STAT pathway mediated the increase of self-renewal of GICs by TGFβ. For this purpose, the neutralizing antibody against LIP and P6 was used to specifically block the effect of the secreted LIP on cells treated with TGFβ. The neurospheres were disassociated into individual cells and were treated with TGFβ, recombinant LIF, anti-LIF antibody and/or P6. The newly formed neurospheres and the total number of cells were counted. […] The treatment with the neutralizing antibody of LIP decreased the induction of the self-renewal of GICs by TGFβ.

[2] = system: STAT3 phosphorylation (JAK-STAT pathway); assay: p-STAT3 Western blotting in GBM1 neurospheres; assay type: cell-based, human
Method: FIG. 5. TGFβ induces the LIF-JAK-STAT pathway in GEM neurospheres derived from patients. (A) The levels of p-STAT3 and STAT3 were determined by means of Western blotting of neurospheres of the sample of GBM1 treated with 20 ng/ml LIF for the indicated time periods. (B) The neurospheres of the sample of GBM1 were treated with 20 ng/ml LIF and/or 0.5 pM P6 for 15 minutes and the levels of total p-STAT3 and STAT3 were determined by means of Western blotting. (C) The neurospheres of the sample of GBM1 were treated with 100 pM TGFβ1 or the 2 pM TβRI inhibitor for 4 hours in the absence of EFG and FGF and the levels of p-STAT3, STAT3, p-Smad2, Smad2 and α-tubulin were determined by means of Western blotting. (D) the neurospheres of the sample of GBM1 were treated with 100 pM TGFβ1, 0.5 μM P6 or the blocking antibody against LIF for 4 hours in the absence of EGF and FGF and the levels of total p-STAT3 and STAT3 were determined by means of Western blotting.
Genomic DNA of U373MG was used to amplify the −634/+32 region of the human LIF promoter which was cloned into the pGL2-basic luciferase vector. The deletion constructs (−267/+32), and (−73/+32) were generated by means of digestion of the construct (−634/+32). Two point mutations were introduced in positions −183 bp and −184 bp in the construct (−267/+32) to interrupt the Smad binding element (SBE) and generate the construct (−267/+32) mutSBE. TGFβ1, TGFβ2, TGFβ3 (R&D Systems), TβRI inhibitor (SB431542, Tocris), LIF (Chemicon), the neutralizing antibodies against LIF (R&D), JAK inhibitor (tetracyclic pyridone 6 (P6) Calbiochem), the assembly of SMART siRNAs targeted to Smad2, Smad3 and Smad4 (Dharmacon), and the control siRNA siGlo (Dharmacon) were used at the indicated concentrations. The antibodies specific against p-Smad2, Smad2, p-STAT3 (p-Tyr705) and total STAT3 (Cell Signalling) and against Smad2, Smad3 and Smad4 (Hata et al., (2000) Cell 100, 229-240) were used for Western blotting.
In order to distinguish whether the LIF signaling pathway is functional in GEM neurospheres, the neurospheres were treated with recombinant LIF and the levels of phosphorylation of the downstream substrate of the LIF receptor complex, STAT3, were determined. […] Furthermore, the induction of p-STAT3 was prevented by the presence of a pharmacological JAK-specific, tetracyclic pyridone 6 (P6) (Pedranzini et al., 2006, Cancer Res, 66: 9714-9721; Thompson et al., 2002, Bioorg Med Chem Lett, 12:1219-1223) (FIG. 5B). […] It was decided to assess whether LIP was mediating the induction of p-STAT3 by TGFβ. For this purpose, a neutralizing antibody against LIF was used to specifically block the effect of secreted LIP on cells treated with TGFβ. The presence of the neutralizing antibody of LIP decreased the induction of p-STAT3 by TGFβ. Furthermore, the levels of p-STAT3 in cells treated with TGFβ were repressed by means of the treatment with P6 (FIG. 5D).

[3] = system: LIF expression in GBM neurospheres; assay: LIF mRNA by qRT-PCR in GBM neurospheres; assay type: cell-based, human; conditions: 100 pM, 3 hours, medium without serum
Method: FIG. 3. TGFβ induces the expression of LIF in PCTC and GBM neurospheres. (A) PCTC cells of the 11 samples of the indicated GEM (GBM1-11) were treated with 100 pM TGFβ1 for 3 hours in medium without serum or left untreated, and the expression levels of LIF were determined by means of qRT-PCR. The g-actin was determined as an internal normalization control. (B) GBM neurosphere cells were treated as in A and the expression levels of LIF were determined by means of qRT-PCR as in A. (C) GBM neurospheres were incubated with 100 pM TGFβ1 and/or 2 μM TβRI inhibitor for 3 hours in medium without serum and the mRNA levels of LIF were determined by means of qRT-PCR as in A. (D) GBM1 neurospheres were incubated with 100 pM TGFβ1, TGFβ2 and TGFβ3 for 3 hours in medium without serum and the mRNA levels of LIF were determined by means of qRT-PCR as in A. (E) The levels of LIF protein secreted were determined by means of ELISA in GBM1 neurospheres after 48 hours of treatment with 100 pM TGFβ1.
The U373MG and A172 cells were a generous gift from J. Rich and D. Bigner and were cultured in DMEM with 10% fetal bovine serum (FBS). The primary culture of tumor cells (PCTC) and the GBM neurospheres were generated as described (Bruna et al., (2007) Cancer Cell 11, 147-160; Gunther et al., (2008) Oncogene. May 1; 27(20):2897-909). Briefly, the samples of tumors were processed in the 30 minutes after the surgical resection. The ground pieces of the samples of human gliomas were digested with 200 U/ml collagenase I (Sigma) and 500 U/ml of DNase I (Sigma) in PBS for 2 hours at 37° C. and with constant vigorous stirring. The suspension of individual cells was filtered through a 70 μm cell filter (BD Falcon) and washed with PBS. Finally, the cells were resuspended and subsequently cultured in DMEM with 10% FBS, for the culture of PCTCs, or in neurosphere medium in the case of the GBM neurospheres. The neurospheres of normal human neuroprogenitors were generated from human embryonic cerebral cortex tissue (12-16 weeks after the conception) collected after voluntary abortions. The samples were processed and cultured as described (Poltavtseva et al. (2002) Brain Res Dev Brain Res 134, 149-154). The neurosphere medium consists of neurobasal medium (Gibco) supplemented with B27 (Gibco), L-glutamine (Gibco), penicillin/streptomycin, and growth factors (20 ng/mL EGF and 20 ng/mL FGF-2 (Peprotech)).
(§1) qRT-PCR was performed using Taqman probes from Applied Biosystems, according to the manufacturer's recommendations. The reactions were carried out in a ABI 7000 sequence detector (Perkin Elmer) and the results were expressed as the fold change calculated by means of the DDCt method relative to the control sample or the first quantified sample. The ribosomal unit of 18S or β-actin were used as internal normalization controls.
It was decided to investigate the molecular mechanisms responsible for the effect of TGFβ on GICs. Gene responses to TGFβ in GBM cells which could be involved in the regulation of the self-renewal of GICs were investigated. In a previous work (Bruna et al., 2007), transcriptome analyses were conducted in the U373MG glioma cell line treated with TGFβ and/or a TβRI inhibitor. LIF was among the 63 gene responses to TGFβ in U373MG which were dependent on the activity of TβRI. […] A panel of PCTCs derived from 11 different human GBMs was treated with TGFβ for 3 hours and the levels of LIF mRNA were determined.

[4] = system: LIF expression in normal human neuroprogenitors; assay: LIF mRNA in neurospheres of normal human neuroprogenitors; assay type: cell-based; conditions: 100 pM, 3 hours, compared with GBM neurospheres
Method: FIG. 8. Effect of TGFβ on the capacity of self-renewal of normal human neuroprogenitors. (A) Immunocytochemistry of the indicated markers was performed in human neuroprogenitor neurospheres. (B) Neurospheres of the sample of GBM1 and of human neuroprogenitors were incubated with the indicated members of the 100 pM TGFβ family for 3 hours and the mRNA levels of LIF were determined. (C, D) Neurosphere cells of normal human neuroprogenitors were incubated in the same conditions that have been described above in FIG. 1D in the presence of 100 pM TGFβ1 or 20 ng/ml LIF for 7 days and the number of newly formed neurospheres (C) and the number total of cells (D) were determined.
The U373MG and A172 cells were a generous gift from J. Rich and D. Bigner and were cultured in DMEM with 10% fetal bovine serum (FBS). The primary culture of tumor cells (PCTC) and the GBM neurospheres were generated as described (Bruna et al., (2007) Cancer Cell 11, 147-160; Gunther et al., (2008) Oncogene. May 1; 27(20):2897-909). Briefly, the samples of tumors were processed in the 30 minutes after the surgical resection. The ground pieces of the samples of human gliomas were digested with 200 U/ml collagenase I (Sigma) and 500 U/ml of DNase I (Sigma) in PBS for 2 hours at 37° C. and with constant vigorous stirring. The suspension of individual cells was filtered through a 70 μm cell filter (BD Falcon) and washed with PBS. […]
as §1, with “The ribosomal unit of 18S or β-actin were used as internal normalization controls.” left out
It was decided to assess whether this effect was specific to tumor cells or was also present in normal neuroprogenitor cells. […] First, it was determined if TGFβ induced LIF in normal human neuroprogenitors. […]

Molecule | effect on the induction of self-renewal of GICs by TGFβ (number of neurospheres, total number of cells) [1] | effect on the induction of p-STAT3 by TGFβ ([2]; 100 pM TGFβ1, 4 hours, absence of EGF and FGF, 2 pM TβRI inhibitor, 0.5 μM P6 or blocking antibody against LIF) | effect on the induction of p-STAT3 by LIF ([2]; 20 ng/ml LIF and 0.5 pM P6, 15 minutes) | LIF transcript in neurospheres derived from patients [3] | induction of LIF mRNA in normal human neuroprogenitor neurospheres [4]
CC(C)(C)c1nc2c3ccc(F)cc3c3c(=O)[nH]ccc3c2[nH]1 [P6, tetracyclic pyridone 6] | repressed | repressed | prevented |  | 
TGFβ2: TGFβ2 (R&D Systems), member of the TGFβ family (protein, UniProt P61812 303-414, looked up) Transforming growth factor …: ALDAAYCFRNVQDNCCLRPLYIDFKRDLGWKWIHEPKGYNANFCAGACPYLWSSDTQHSRVLSLYNTINPEASASPCCVSQDLEPLTILYYIGKTPKIEQLSNMIVKSCKCS |  |  |  | capable of inducing LIF | did not induce LIF
